Columns and labels:
[1] = target: CDK2/CyclinE1 (Homo sapiens, UniProt P24941); test: ADP-Glo kinase assay, CDK2; assay type: biochemical; conditions: 1 nM CDK2/CyclinE1, 15 μM ATP (Km), Histone H1, 60 min; read-out: inhibitory activity (IC50, nM) CDK2
Procedure: (§1) The ADP-Glo kinase assay was used for testing the activity of CDKs. The compounds were diluted in 384-well plates using Echo. The starting concentration was 10 μM and was 3-fold diluted to obtain 10 concentration points, each tested in duplicate, and the final concentration of DMSO in the assay system was 1%. CDK solutions (the final concentrations were 16.5 nM CDK1/CyclinB, 1 nM CDK2/CyclinE1, 16.3 nM CDK4/CyclinD1, 11.5 nM CDK5/p25, 15.7 nM CDK6/CyclinD3, 80 nM CDK7/Cyclin H/MAT1, 15.3 nM CDK9/Cyclin T1, and 150 nM CDK12/CyclinK) prepared in assay buffer were added at 2.5 μL, and the enzymes and compounds were pre-incubated at room temperature for 10 min. ATP (the concentration was Km) & substrate solutions (20 μM ATP & 0.1 mg/mL Histone H1 Protein for CDK1/CyclinB, 15 μM ATP & 0.1 mg/mL Histone H1 Protein for CDK2/CyclinE1, 200 μM ATP & 0.2 mg/mL DYRKtide peptide for CDK4/CyclinD1, 10 μM ATP & 0.1 mg/mL Histone H1 Protein for CDK5/p25, 200 μM ATP & 0.1 mg/mL Histone H1 Protein for CDK6/CyclinD3, 70 μM ATP & 0.2 mg/mL MBP for CDK7/Cyclin H/MAT1, 60 μM ATP & 0.2 mg/mL PDKtide for CDK9/Cyclin T1, and 20 μM ATP & 80 μM pS7-CTD peptide for CDK12/CyclinK) prepared in assay buffer were added at 2.5 μL. After thorough mixing, the plates were incubated at room temperature, with CDK1/4/9/12/13 incubated for 120 min and CDK2/5/6/7 incubated for 60 min. ADP-Glo reagents were added at 4 μL, and the plates were incubated at room temperature for 40 min. Kinase detection reagents were added at 8 μL, and the plates were incubated at room temperature for 40 min. Readings were taken using an Envision multimode microplate reader. Data were processed using GraphPad Prism 8, and IC50 was calculated.
(§2) [formula] • X: the logarithm of the compound concentration; Y: % inhibition.

[2] = target: CDK7/Cyclin H/MAT1 (Homo sapiens, UniProt P50613); test: ADP-Glo kinase assay, CDK7; assay type: biochemical; conditions: 80 nM CDK7/Cyclin H/MAT1, 70 μM ATP (Km), MBP, 60 min; read-out: inhibitory activity (IC50, nM) CDK7
Procedure: as §1, §2

[3] = Human liver microsome metabolism study; assay type: in vitro ADME; conditions: human liver microsomes
Procedure: 222.5 μL of human liver microsomes (protein concentration: 1 mg/mL) and 25 μL of NADPH ([…]) were added to an incubation plate and pre-heated for 10 min. 2.5 μL of control compound and test compound (100 μM) were added.
[…] The reaction was stopped by adding 5 volumes of cold acetonitrile containing IS (100 nM alprazolam, 200 nM caffeine, and 100 nM tolbutamide). The reaction mixture was centrifuged, and 100 μL of the supernatant was collected and mixed with 100 μL of ultrapure H2O. Then the mixture was analyzed by LC-MS/MS.
The slope value k was determined by linear regression of the natural logarithm of a curve of the parent drug remaining percentage versus incubation time.
The in-vitro half-life (in-vitro T1/2) was determined by the slope value:
Using the following equation (the average of repeated measurements), the in-vitro T½ (min) was converted to the in-vitro intrinsic clearance rate (in-vitro CLint, in μL/min/mg protein): […]

Chain of CDK7/Cyclin H/MAT1 (P50613 whole entry, species assumed): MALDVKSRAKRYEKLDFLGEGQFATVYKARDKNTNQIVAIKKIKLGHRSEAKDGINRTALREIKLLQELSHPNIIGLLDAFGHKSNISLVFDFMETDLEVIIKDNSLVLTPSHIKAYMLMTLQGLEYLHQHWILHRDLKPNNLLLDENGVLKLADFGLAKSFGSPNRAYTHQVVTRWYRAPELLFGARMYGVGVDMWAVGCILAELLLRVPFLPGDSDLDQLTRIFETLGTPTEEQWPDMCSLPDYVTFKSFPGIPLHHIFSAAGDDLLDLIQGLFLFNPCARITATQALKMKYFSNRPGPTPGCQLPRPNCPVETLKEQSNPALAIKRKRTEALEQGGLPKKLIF
Chain of CDK7/Cyclin H/MAT1 (P51946 whole entry partner, species assumed): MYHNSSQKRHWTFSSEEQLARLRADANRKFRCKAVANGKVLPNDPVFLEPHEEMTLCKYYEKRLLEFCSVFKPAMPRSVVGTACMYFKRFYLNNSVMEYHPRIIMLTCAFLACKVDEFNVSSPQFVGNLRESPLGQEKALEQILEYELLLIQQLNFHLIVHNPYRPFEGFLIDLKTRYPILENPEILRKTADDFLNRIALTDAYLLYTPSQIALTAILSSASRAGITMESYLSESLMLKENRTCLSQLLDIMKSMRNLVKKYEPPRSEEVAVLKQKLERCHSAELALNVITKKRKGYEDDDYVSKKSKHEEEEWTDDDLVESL
Chain of CDK7/Cyclin H/MAT1 (P51948 whole entry partner, species assumed): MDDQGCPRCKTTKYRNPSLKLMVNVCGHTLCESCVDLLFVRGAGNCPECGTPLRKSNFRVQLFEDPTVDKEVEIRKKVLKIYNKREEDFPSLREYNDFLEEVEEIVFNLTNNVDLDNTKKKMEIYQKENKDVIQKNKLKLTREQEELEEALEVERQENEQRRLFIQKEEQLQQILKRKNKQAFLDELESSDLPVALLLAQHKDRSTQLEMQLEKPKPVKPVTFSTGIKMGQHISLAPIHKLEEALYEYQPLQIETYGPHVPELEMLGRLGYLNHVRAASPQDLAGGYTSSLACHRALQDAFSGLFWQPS

With C[C@@H]1Cc2cnc(NCc3ccn(C)n3)nc2CN1C(=O)[C@H]1CCN(C)C[C@@H]1c1ccccc1 [Janssen-01, reference compound] the IC50 [1] was 933 nM, the IC50 [2] was 25.2 nM and the half-life at 1 μM ([3]; in-vitro half-life) was 73 min. For the same compound, the microsomal CLint at 1 μM ([3]; in-vitro intrinsic clearance) was 19 µL/min/mg, the “Remaining amount % at 0.5 min” value ([3]; incubation 0.5 min) was 100.00% and the “Remaining amount % at 5 min” value ([3]; incubation 5 min) was 91.32%. The “Remaining amount % at 15 min” value ([3]; incubation 15 min) was 78.60%, the “Remaining amount % at 30 min” value ([3]; incubation 30 min) was 68.95% and the “Remaining amount % at 60 min” value ([3]; incubation 60 min) was 55.59%.

— patent publication US20260176266A1, “PIPERIDINOPYRIMIDINE DERIVATIVE, PREPARATION METHOD THEREFOR AND USE THEREOF IN MEDICINE” (TUOJIE BIOTECH (SHANGHAI) CO., LTD., priority 2022, published 2026)
